This passage reports Ki results from BindingDB's records for doi:10.1016/s0960-894x(01)00397-3 (Glaxosmithkline, 2001).

A word on the Ki: it is the dissociation constant of the complex between target and ligand, obtained from inhibition or displacement. Higher therefore signals lower affinity.

Structures are written as SMILES.

This assay has as its target C-C chemokine receptor type 2 (Homo sapiens, UniProt P41597). The assay is described as follows: Inhibition of [125I]MCP-1 binding to the cloned C-C chemokine receptor type 2B expressed in CHO cells.

Sequence of C-C chemokine receptor type 2 (P41597 whole entry): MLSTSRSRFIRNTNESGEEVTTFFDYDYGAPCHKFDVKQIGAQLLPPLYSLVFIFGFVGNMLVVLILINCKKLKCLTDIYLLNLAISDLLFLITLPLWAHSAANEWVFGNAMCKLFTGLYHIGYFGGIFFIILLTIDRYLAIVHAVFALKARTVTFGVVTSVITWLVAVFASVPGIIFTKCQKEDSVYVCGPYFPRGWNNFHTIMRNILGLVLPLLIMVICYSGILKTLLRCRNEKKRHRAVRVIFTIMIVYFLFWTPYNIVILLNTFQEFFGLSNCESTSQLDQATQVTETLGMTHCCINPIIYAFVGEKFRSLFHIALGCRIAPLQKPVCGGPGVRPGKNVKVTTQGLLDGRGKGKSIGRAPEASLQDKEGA

For the compound `O=C(/C=C/c1ccc(Cl)c(Cl)c1)N[C@H]1CC[C@H](CN2CCC(c3c[nH]c4ccc(O)cc34)CC2)CC1` [3-(3,4-dichlorophenyl)-N-((1r,4r)-4-((4-(5-hydroxy-1H-indol-3-yl)piperidin-1-yl)methyl)cyclohexyl)acrylamide], the Ki is 0.316 µM.
